Measured values taken from ChEMBL document CHEMBL1138148, “Conformational constraint in oxazolidinone antibacterials. Part 2: Synthesis and structure-activity studies of oxa-, aza-, and thiabicyclo[3.1.0]hexylphenyl oxazolidinones” (2006).
≈ marks a conversion by molar mass, not a printed value.

Experiments:
Type in all cases: functional
[1] = system: Moraxella catarrhalis; test: Antibacterial activity against Moraxella catarrhalis BC-3531
[2] = system: Haemophilus influenzae; test: Antibacterial activity against Haemophilus influenzae HI3542; settings: HI-3542
[3] = system: Enterococcus faecalis; test: Antibacterial activity against Enterococcus faecalis MGH-2 EF1-1
[4] = system: Streptococcus pneumoniae; test: Antibacterial activity against Streptococcus pneumoniae SVI SP-3
[5] = system: Staphylococcus aureus; test: Antibacterial activity against Staphylococcus aureus UC-76 SA-1
[6] = system: Staphylococcus aureus; test: In vivo efficacy in mouse infected with Staphylococcus aureus UC 9213 administered po; settings: UC 9213, po

Row | MIC [1] [µg/mL] | MIC [2] [µg/mL] | MIC [3] [µg/mL] | MIC [4] [µg/mL] | MIC [5] [µg/mL] | Structure (SMILES) | ED50 [6] [mg/kg]
1 | 8 (≈ 25.3 µM) | 32 (≈ 101 µM) | 16 (≈ 50.6 µM) | 8 (≈ 25.3 µM) | 8 (≈ 25.3 µM) | CC(=O)NC[C@H]1CN(c2ccc([C@H]3[C@@H]4COC[C@@H]43)cc2)C(=O)O1 | 
2 | 8 (≈ 21.3 µM) | 8 (≈ 21.3 µM) | 2 (≈ 5.31 µM) | 2 (≈ 5.31 µM) | 2 (≈ 5.31 µM) | CC(=O)NC[C@H]1CN(c2ccc([C@H]3[C@@H]4CN(C(N)=O)C[C@@H]43)c(F)c2)C(=O)O1 | 15.3
3 | 4 (≈ 9.99 µM) | 8 (≈ 20 µM) | 1 (≈ 2.5 µM) | 1 (≈ 2.5 µM) | 1 (≈ 2.5 µM) | CC(=O)NC[C@H]1CN(c2ccc([C@H]3[C@@H]4CN(C(=O)CC#N)C[C@@H]43)c(F)c2)C(=O)O1 | 
4 | 8 (≈ 20.9 µM) | 8 (≈ 20.9 µM) | 4 (≈ 10.5 µM) | 2 (≈ 5.23 µM) | 4 (≈ 10.5 µM) | CC(=O)NC[C@H]1CN(c2ccc([C@H]3[C@@H]4CS(=O)(=O)C[C@@H]43)c(F)c2)C(=O)O1 | 4.2
5 | 32 (≈ 74 µM) | 32 (≈ 74 µM) | 4 (≈ 9.25 µM) | 4 (≈ 9.25 µM) | 4 (≈ 9.25 µM) | CC(=O)NCC(=O)N1C[C@@H]2[C@H](C1)[C@H]2c1ccc(N2C[C@H](CNC(C)=O)OC2=O)cc1F | 
6 | 16 (≈ 41 µM) | 16 (≈ 41 µM) | 4 (≈ 10.2 µM) | 1 (≈ 2.56 µM) | 16 (≈ 41 µM) | CC(=O)NC[C@H]1CN(c2ccc([C@H]3[C@@H]4CN(C(=O)CN)C[C@@H]43)c(F)c2)C(=O)O1 | 
7 | 8 (≈ 19.4 µM) | 16 (≈ 38.9 µM) | 2 (≈ 4.86 µM) | 1 (≈ 2.43 µM) | 4 (≈ 9.72 µM) | CC(=O)NC[C@H]1CN(c2ccc([C@H]3[C@@H]4CN(C(=O)C(F)F)C[C@@H]43)c(F)c2)C(=O)O1 | 
8 | 8 (≈ 19.2 µM) | 8 (≈ 19.2 µM) | 4 (≈ 9.61 µM) | 2 (≈ 4.8 µM) | 4 (≈ 9.61 µM) | O=C(CO)NC[C@H]1CN(c2cc(F)c([C@H]3[C@@H]4CS(=O)(=O)C[C@@H]43)c(F)c2)C(=O)O1 | 
9 | 8 (≈ 22.7 µM) | 32 (≈ 90.8 µM) | 8 (≈ 22.7 µM) | 4 (≈ 11.4 µM) | 8 (≈ 22.7 µM) | CC(=O)NC[C@H]1CN(c2cc(F)c([C@H]3[C@@H]4COC[C@@H]43)c(F)c2)C(=O)O1 | 
10 | 4 (≈ 9.79 µM) | 4 (≈ 9.79 µM) | 4 (≈ 9.79 µM) | 2 (≈ 4.9 µM) | 4 (≈ 9.79 µM) | O=C(NC[C@H]1CN(c2ccc([C@H]3[C@@H]4CS(=O)(=O)C[C@@H]43)c(F)c2)C(=O)O1)C1CC1 | 
11 | 8 (≈ 22.1 µM) | 8 (≈ 22.1 µM) | 2 (≈ 5.53 µM) | 1 (≈ 2.77 µM) | 2 (≈ 5.53 µM) | CC(=O)NC[C@H]1CN(c2ccc([C@H]3[C@@H]4CN(C=O)C[C@@H]43)c(F)c2)C(=O)O1 | 
12 | 8 (≈ 20.7 µM) | 16 (≈ 41.4 µM) | 2 (≈ 5.18 µM) | 1 (≈ 2.59 µM) | 2 (≈ 5.18 µM) | CC(=O)NC[C@H]1CN(c2ccc([C@H]3[C@@H]4CN(CCC#N)C[C@@H]43)c(F)c2)C(=O)O1 | 
13 | 8 (≈ 19.3 µM) | 16 (≈ 38.5 µM) | 2 (≈ 4.81 µM) | 1 (≈ 2.41 µM) | 2 (≈ 4.81 µM) | CC(=O)NC[C@H]1CN(c2ccc([C@H]3[C@@H]4CN(c5nnn(C)n5)C[C@@H]43)c(F)c2)C(=O)O1 | 
14 | 8 (≈ 20.2 µM) | 8 (≈ 20.2 µM) | 2 (≈ 5.04 µM) | 1 (≈ 2.52 µM) | 4 (≈ 10.1 µM) | CCC(=O)NC[C@H]1CN(c2ccc([C@H]3[C@@H]4CS(=O)(=O)C[C@@H]43)c(F)c2)C(=O)O1 | 
15 | 4 (≈ 12 µM) | 8 (≈ 23.9 µM) | 4 (≈ 12 µM) | 2 (≈ 5.98 µM) | 4 (≈ 12 µM) | CC(=O)NC[C@H]1CN(c2ccc([C@H]3[C@@H]4COC[C@@H]43)c(F)c2)C(=O)O1 | 
16 | 8 (≈ 17.8 µM) | 16 (≈ 35.5 µM) | 2 (≈ 4.44 µM) | 1 (≈ 2.22 µM) | 4 (≈ 8.88 µM) | CC(F)(F)C(=O)NC[C@H]1CN(c2cc(F)c([C@H]3[C@@H]4CS(=O)(=O)C[C@@H]43)c(F)c2)C(=O)O1 | 
17 | 16 (≈ 42.6 µM) | 64 (≈ 170 µM) | 64 (≈ 170 µM) | 4 (≈ 10.7 µM) | 64 (≈ 170 µM) | CC(=O)NC[C@H]1CN(c2ccc([C@H]3[C@@H]4CN(C(=N)N)C[C@@H]43)c(F)c2)C(=O)O1 | 
18 | 16 (≈ 38.1 µM) | 32 (≈ 76.3 µM) | 4 (≈ 9.54 µM) | 2 (≈ 4.77 µM) | 8 (≈ 19.1 µM) | CC(=O)NC[C@H]1CN(c2ccc([C@H]3[C@@H]4CN(C(=O)C(C)(C)O)C[C@@H]43)c(F)c2)C(=O)O1 | 
19 | 8 (≈ 19.5 µM) | 16 (≈ 39.1 µM) | 4 (≈ 9.77 µM) | 2 (≈ 4.89 µM) | 4 (≈ 9.77 µM) | CC(=O)NC[C@H]1CN(c2cc(F)c([C@H]3[C@@H]4CN(C(=O)CO)C[C@@H]43)c(F)c2)C(=O)O1 | 

Row | MIC [1] [µg/mL] | MIC [2] [µg/mL] | MIC [3] [µg/mL] | MIC [4] [µg/mL] | MIC [5] [µg/mL] | Structure (SMILES) | ED50 [6] [mg/kg]
20 | 8 (≈ 18.8 µM) | 4 (≈ 9.4 µM) | 4 (≈ 9.4 µM) | 2 (≈ 4.7 µM) | 4 (≈ 9.4 µM) | N#CCC(=O)NC[C@H]1CN(c2cc(F)c([C@H]3[C@@H]4CS(=O)(=O)C[C@@H]43)c(F)c2)C(=O)O1 | 
21 | 32 (≈ 75.7 µM) | 32 (≈ 75.7 µM) | 8 (≈ 18.9 µM) | 2 (≈ 4.73 µM) | 8 (≈ 18.9 µM) | O=C(NC[C@H]1CN(c2ccc([C@H]3[C@@H]4CS(=O)(=O)C[C@@H]43)c(F)c2)C(=O)O1)C1CCC1 | 
22 | 4 (≈ 9.38 µM) | 8 (≈ 18.8 µM) | 2 (≈ 4.69 µM) | 1 (≈ 2.34 µM) | 2 (≈ 4.69 µM) | O=C(NC[C@H]1CN(c2cc(F)c([C@H]3[C@@H]4CS(=O)(=O)C[C@@H]43)c(F)c2)C(=O)O1)C1CC1 | 
23 | 8 (≈ 20 µM) | 8 (≈ 20 µM) | 2 (≈ 4.99 µM) | 1 (≈ 2.5 µM) | 1 (≈ 2.5 µM) | CC(=O)NC[C@H]1CN(c2ccc([C@H]3[C@@H]4CN(C(=N)NC#N)C[C@@H]43)c(F)c2)C(=O)O1 | 
24 | 8 (≈ 19.6 µM) | 8 (≈ 19.6 µM) | 8 (≈ 19.6 µM) | 4 (≈ 9.82 µM) | 8 (≈ 19.6 µM) | N#CCC(=O)NC[C@H]1CN(c2ccc([C@H]3[C@@H]4CS(=O)(=O)C[C@@H]43)c(F)c2)C(=O)O1 | 
25 | 8 (≈ 21.1 µM) | 16 (≈ 42.2 µM) | 4 (≈ 10.5 µM) | 1 (≈ 2.64 µM) | 4 (≈ 10.5 µM) | CC(=O)NC[C@H]1CN(c2ccc([C@H]3[C@@H]4CN(CCF)C[C@@H]43)c(F)c2)C(=O)O1 | 
26 | 4 (≈ 9.65 µM) | 4 (≈ 9.65 µM) | 2 (≈ 4.83 µM) | 1 (≈ 2.41 µM) | 2 (≈ 4.83 µM) | CCC(=O)NC[C@H]1CN(c2cc(F)c([C@H]3[C@@H]4CS(=O)(=O)C[C@@H]43)c(F)c2)C(=O)O1 | 
27 | 64 (≈ 159 µM) | 64 (≈ 159 µM) | 32 (≈ 79.7 µM) | 64 (≈ 159 µM) | 64 (≈ 159 µM) | CC(=O)NC[C@H]1CN(c2ccc([C@H]3[C@@H]4CN(c5nn[nH]n5)C[C@@H]43)c(F)c2)C(=O)O1 | 
28 | 8 (≈ 22 µM) | 16 (≈ 43.9 µM) | 8 (≈ 22 µM) | 4 (≈ 11 µM) | 4 (≈ 11 µM) | CC(=O)NC[C@H]1CN(c2ccc([C@H]3[C@@H]4CS(=O)(=O)C[C@@H]43)cc2)C(=O)O1 | 7.2
29 | 4 (≈ 10.7 µM) | 8 (≈ 21.4 µM) | 4 (≈ 10.7 µM) | 4 (≈ 10.7 µM) | 4 (≈ 10.7 µM) | CC(=O)NC[C@H]1CN(c2ccc([C@H]3[C@@H]4CN(C(=O)CO)C[C@@H]43)cc2)C(=O)O1 | 
30 | 8 (≈ 20.4 µM) | 32 (≈ 81.8 µM) | 4 (≈ 10.2 µM) | 2 (≈ 5.11 µM) | 4 (≈ 10.2 µM) | COC(=O)N1C[C@@H]2[C@H](C1)[C@H]2c1ccc(N2C[C@H](CNC(C)=O)OC2=O)cc1F | 
31 | 32 (≈ 77.2 µM) | 16 (≈ 38.6 µM) | 4 (≈ 9.65 µM) | 2 (≈ 4.83 µM) | 4 (≈ 9.65 µM) | C/N=C(\NC#N)N1C[C@@H]2[C@H](C1)[C@H]2c1ccc(N2C[C@H](CNC(C)=O)OC2=O)cc1F | 
32 | 8 (≈ 20.4 µM) | 4 (≈ 10.2 µM) | 2 (≈ 5.11 µM) | 2 (≈ 5.11 µM) | 2 (≈ 5.11 µM) | CC(=O)NC[C@H]1CN(c2ccc([C@H]3[C@@H]4CN(C(=O)CO)C[C@@H]43)c(F)c2)C(=O)O1 | 2.2
33 | 8 (≈ 24 µM) | 32 (≈ 96 µM) | 16 (≈ 48 µM) | 2 (≈ 6 µM) | 8 (≈ 24 µM) | CC(=O)NC[C@H]1CN(c2ccc([C@H]3[C@@H]4CNC[C@@H]43)c(F)c2)C(=O)O1 | 
34 | 8 (≈ 21.2 µM) | 8 (≈ 21.2 µM) | 8 (≈ 21.2 µM) | 0.5 (≈ 1.32 µM) | 4 (≈ 10.6 µM) | CC(=O)NC[C@H]1CN(c2ccc([C@H]3[C@@H]4CN(CCO)C[C@@H]43)c(F)c2)C(=O)O1 | 
35 | 8 (≈ 18.5 µM) | 16 (≈ 37 µM) | 8 (≈ 18.5 µM) | 2 (≈ 4.63 µM) | 8 (≈ 18.5 µM) | CC(F)(F)C(=O)NC[C@H]1CN(c2ccc([C@H]3[C@@H]4CS(=O)(=O)C[C@@H]43)c(F)c2)C(=O)O1 | 
36 | 4 (≈ 11.2 µM) | 8 (≈ 22.3 µM) | 1 (≈ 2.79 µM) | 1 (≈ 2.79 µM) | 2 (≈ 5.58 µM) | CC(=O)NC[C@H]1CN(c2ccc([C@H]3[C@@H]4CN(C#N)C[C@@H]43)c(F)c2)C(=O)O1 | 
37 | 4 (≈ 9.99 µM) | 8 (≈ 20 µM) | 2 (≈ 4.99 µM) | 1 (≈ 2.5 µM) | 2 (≈ 4.99 µM) | CC(=O)NC[C@H]1CN(c2cc(F)c([C@H]3[C@@H]4CS(=O)(=O)C[C@@H]43)c(F)c2)C(=O)O1 | 3.1
38 | 8 (≈ 20.1 µM) | 8 (≈ 20.1 µM) | 8 (≈ 20.1 µM) | 4 (≈ 10 µM) | 8 (≈ 20.1 µM) | O=C(CO)NC[C@H]1CN(c2ccc([C@H]3[C@@H]4CS(=O)(=O)C[C@@H]43)c(F)c2)C(=O)O1 | 

Row | Structure (SMILES) | MIC [1] [µg/mL] | MIC [2] [µg/mL] | MIC [3] [µg/mL] | MIC [4] [µg/mL] | MIC [5] [µg/mL] | ED50 [6] [mg/kg]
39 | CC(=O)NC[C@H]1CN(c2ccc(N3CCOCC3)c(F)c2)C(=O)O1 [LINEZOLID] | 8 (≈ 23.7 µM) | 16 (≈ 47.4 µM) |  |  |  | 
